Laboratory results as given in patent publication US6949533B2, “6,7-Oxygenated steroids and uses related thereto” (Inflazyme Pharmaceuticals Ltd., priority 1996, dated 2005).
Where two headings read alike, the source gives them in different places.

Legend:
[1] = test system: passively sensitized rat mast cells (RBL-2H3); test: antigen-induced release of hexosaminidase from RBL-2H3 cells; type: cell-based; details: for inhibition at 25 µM: Rattus norvegicus
Experimental: (§1) The anti-allergic effects of various polyhydroxylated steroids of the present invention were evaluated by measuring their effect on antigen-induced secretion of hexosaminidase from a passively sensitized rat mast cell line (RBL-2H3) and a murine mast cell line (MC/9). The ability of agents to inhibit the release of mast cell granule contents, e.g., histamine and hexosaminidase, is indicative of anti-allergy and/or anti-asthma activity.
(§2) Hexosaminidase is released from the mast cell granule along with histamine and other mediators during antigen challenge. RBL-2H3 and MC/9 cells were grown in culture and passively sensitized to dinitrophenol (DNP) using anti-human-DNP (IgE). Cells were incubated with each compound (25 μM) for 1 hour at 37° C. and then stimulated with 0.1 mg/ml DNP-HSA (antigen) for 15 min. Aliquots of the supernatant were removed and used to measure the amount of hexosaminidase released during challenge with the antigen. The amount of hexosaminidase present in the supernatant was determined calorimetrically by monitoring the enzymatic metabolism of p-nitrophenyl-N-acetyl-β-D-glucosaminide (p-NAG) over a period of 1 hour at 410 nm. The effect of each compound was determined as a percentage of the antigen-induced response (minus background release) obtained in the presence of DMSO alone, as set forth in Tables 2 and 3. These values were used to determine the degrees of inhibition of antigen-induced hexosaminidase release from the cells.

mouse mast cells (MC/9) = test: antigen-induced release of hexosaminidase from MC/9 cells; type: cell-based; details: for inhibition at 25 µM: Mus musculus, MC9, 25 μM compound, read-out: Percentage Inhibition (mean) MC/9 cells
Experimental: as §1, §2

guinea pig ileum = test: antigen-induced contraction of ileum from sensitized guinea pigs; details: Cavia porcellus, read-out: Percentage Inhibition, 30 μM compound, n = 3-4
Experimental: The ability of compounds to inhibit allergen-induced contraction of ileum from sensitized animals is indicative of antiallergic activity. Sensitized guinea pig ileum is particularly useful in measuring the immediate allergic response.
The guinea pig ileum has been used to evaluate the ability of compounds to inhibit allergan-induced histamine and mediator release causing smooth muscle contraction. Guinea pigs were sensitized by an intraperitoneal injection of 100 mg ovalbumin and an intramuscular injection of 50 mg ovalbumin on day 0, followed by a second intramuscular injection of 50 mg ovalbumin on day 1. […] Segments of ileum were prepared and suspended, with muscle contractions being measured in the longitudinal plane, in Tyrode's buffer at 37° C. and aerated with 5% CO2 in O2. Tissues were suspended under a resting tension of 2 grams and isometric contractions were measured using force-displacement transducers coupled to a polygraph. Tissues were stimulated with 3 μM histamine 3 times to ensure reproducible contractions were obtained. Tissues were then incubated with each compound (30 μM) or 0.15% dimethylsulphoxide (DMSO) as a control, for 20 min, after which time the tissues were challenged with 100 μg/ml ovalbumin. The magnitude of the contraction induced by OA in the presence of each compound was expressed as a percentage of the contraction obtained to 3 μM histamine. The protective effects of the various compounds on OA-induced contraction of guinea pig ileum from sensitized animals are summarized in Table 4.

sensitized guinea pigs = test: allergen-induced changes in lung resistance and compliance in vivo; design: species or system guinea pig; details: 5 mg/kg/day for 4 days p.o.
Experimental: Female Cam Hartley guinea pigs (350-400 g) are sensitized to ovalbumin by exposure of the guinea pigs to a nebulized solution of 1% ovalbumin in saline for 15 minutes. After 10-12 days, the animals are found to be acutely sensitized to the allergen (ovalbumin). Animals are treated by oral gavage, under light halothane anesthesia, with 300 μl polyethyleneglycol-200 (PEG) or 5 mg/Kg of test compound in 300 μl of PEG. Animals are treated once daily for 4 days with the final dose administered 2 hours prior to allergen challenge. Alternatively, compounds were delivered by inhalation, using a Hudson nebulizer driven by 6 psi oxygen, providing a single dose of 50 μg/Kg 20 min prior to challenge.
An animal is anaesthetized using ketamine ([…]; i.p.) and xylazine (10 mg/Kg; i.p.) and 1% halothane during the surgical procedure. A tracheostomy is performed and a water-filled esophageal cannula is inserted prior to positioning the animal in a body plethysmograph. The tracheal cannula is attached to a fixed tracheal cannula in the plethysmograph. Cardiac function is monitored using electrocardiography. The animal is paralyzed using pancuronium bromide (0.8 mg/Kg; i.m.) and ventilated with 3 ml tidal breaths using a Harvard small animal ventilator, at a frequency of 60 breaths per minute. Pulmonary resistance and dynamic lung compliance data are obtained from volume, flow and transpulmonary pressure signals using multipoint analysis.
Pulmonary function is continually monitored throughout the experiment and measurements of lung resistance and lung compliance are made at various time-points (e.g., 0, 1, 2, 3, 4, 5, 10, 20 and 30 min) following antigen challenge. Data is collected on a computer-linked physiological measurement system using DIREC Physiological recording software and analyzed using ANADAT software designed for lung mechanics measurements. This software was obtained from RHT-InfoDat Inc., Montreal, Quebec, Canada.
Once baseline resistance and compliance measurements are obtained, the animal is challenged with 6 breaths of saline. After 10 minutes, during which time no alterations in lung function should occur, the animal is challenged with 6 breaths of 2 or 3% ovalbumin in saline (as the antigen stimulus). Saline and antigen are delivered in each breath using a Hudson nebulizer.

isolated trachea = test system: isolated trachea; design: species or system guinea pig; details: compound 20 μM, study 2
Experimental: The effects of a number of the compounds described herein on allergen-induced bronchoconstriction were evaluated for anti-asthma activity. The ability of a compound to inhibit allergen-induced decreases in lung function in sensitized guinea pigs in response to antigen-challenge is indicative of anti-asthma activity. In particular, the model system is useful in the evaluation of the potential effects of a compound in the treatment of the early asthmatic reaction (EAR) when severe bronchoconstriction occurs.
Guinea pigs were exposed to a nebulized solution of 1% ovalbumin (OA) in saline for 15 min. […] Tracheal rings were prepared and bathed in Krebs-Henseleit solution at 37° C. and aerated with 5% CO2 in […]. Tissues were suspended under a resting tension of 2 g and isometric contractions were measured using force-displacement transducers coupled to a polygraph. Tissues were incubated with each compound or 0.1% dimethylsulfoxide (as a control) for 20 min, after which increasing concentrations of OA (0.001-100 μg/ml) were added to the tissue. After the final concentration of OA was added and the response was recorded, the tissues were stimulated with 100 μM methacholine which caused maximum contraction of the trachea. The magnitude of the contraction induced by OA in the presence of each compound was expressed as a percentage of the maximum contraction obtained using methacholine (100 μM).

[2] = RBL-2H3, 25 μM compound, antigen-induced hexosaminidase release, read-out: Percentage Inhibition (mean) RBL-2H3 Cells
[3] = RBL-2H3, read-out: Percentage Inhibition (mean) RBL-2H3 Cells

Row | SMILES | inhibition at 25 µM [1, 2] | inhibition at 25 µM (mouse mast cells (MC/9)) | inhibition at 30 µM (guinea pig ileum) | other results
1 | CC(=O)O[C@@H]1C2C(CC[C@@]3(C)C2CCC32OCCO2)[C@@]2(C)CC[C@H](O)CC2[C@H]1OC(C)=O (stereo partly drawn) [Compound 322] | 25.6% |  |  | 
2 | C/C=C1/CCC2C3C(CC[C@]12C)[C@@]1(C)CCC(=O)CC1[C@@H](O)[C@@H]3O (stereo partly drawn) [Compound 335] | 56% | 69% | 30.7% | 
3 | CC(C)CCCC(C)C1CCC2C3C(O)C(O)C4CC(O)CCC4(C)C3CCC12C (stereo not drawn) [Compound 354] |  |  |  | Percentage Inhibition (mean) MC/9 cells (mouse mast cells (MC/9); 25 μM compound): 76%; Percentage Inhibition (mean) RBL-2H3 Cells ([1]; 25 μM compound, antigen-induced hexosaminidase release): 30%
4 | C/C=C1/CCC2C3C(CC[C@]12C)[C@@]1(C)CCCCC1[C@@H](O)[C@@H]3O (stereo partly drawn) [Compound 346] | 16% | 61% | 62.5% | 
5 | CC(C)(C)[Si](C)(C)OC1CC[C@]2(C)C3CC[C@@]4(C)C(CCC45OCCO5)C3[C@@H](O)[C@H](O)C2C1 (stereo partly drawn) [Compound 221] |  |  | 60.7% | 
6 | C/C=C1/CCC2C3C(CC[C@]12C)[C@@]1(C)CC[C@@H](Cl)CC1[C@@H](O)[C@@H]3O (stereo partly drawn) [Compound 337] | 44% | 56% | 50.7% | 
7 | C=C1CCC2C3C(CC[C@]12C)[C@@]1(C)CC[C@H](O)CC1[C@@H](O)[C@@H]3O (stereo partly drawn) [Compound 342] | 57% | 39% | 28.3% | Lung Compliance (sensitized guinea pigs; 1 min after challenge): 0.154 ± 0.055 ml/cm H2O; Lung Resistance (sensitized guinea pigs; 1 min after challenge): 0.453 ± 0.120 cm H2O/ml/sec; Lung Compliance (sensitized guinea pigs; 2 min after challenge): 0.073 ± 0.038 ml/cm H2O; Lung Resistance (sensitized guinea pigs; 2 min after challenge): 1.786 ± 0.82 cm H2O/ml/sec; Lung Compliance (sensitized guinea pigs; 3 min after challenge): 0.044 ± 0.022 ml/cm H2O; Lung Resistance (sensitized guinea pigs; 3 min after challenge): 1.930 ± 0.55 cm H2O/ml/sec; Lung Compliance (sensitized guinea pigs; 4 min after challenge): 0.044 ± 0.022 ml/cm H2O; Lung Resistance (sensitized guinea pigs; 4 min after challenge): 1.621 ± 0.36 cm H2O/ml/sec; Lung Compliance (sensitized guinea pigs; 5 min after challenge): 0.038 ± 0.015 ml/cm H2O; Lung Resistance (sensitized guinea pigs; 5 min after challenge): 1.4816 ± 0.32 cm H2O/ml/sec; Lung Compliance (sensitized guinea pigs; 10 min after challenge): 0.048 ± 0.005 ml/cm H2O; Lung Resistance (sensitized guinea pigs; 10 min after challenge): 1.002 ± 0.14 cm H2O/ml/sec; Lung Compliance (sensitized guinea pigs; 20 min after challenge): 0.084 ± 0.005 ml/cm H2O; Lung Resistance (sensitized guinea pigs; 20 min after challenge): 0.524 ± 0.08 cm H2O/ml/sec; Lung Compliance (sensitized guinea pigs; 30 min after challenge): 0.109 ± 0.006 ml/cm H2O; Lung Resistance (sensitized guinea pigs; 30 min after challenge): 0.354 ± 0.04 cm H2O/ml/sec; Lung Compliance (sensitized guinea pigs; Baseline): 0.444 ± 0.037 ml/cm H2O; Lung Resistance (sensitized guinea pigs; Baseline): 0.212 ± 0.020 cm H2O/ml/sec; Lung Compliance (sensitized guinea pigs; OA/10 s): 0.464 ± 0.031 ml/cm H2O; Lung Resistance (sensitized guinea pigs; OA/10 s): 0.223 ± 0.020 cm H2O/ml/sec
8 | C[C@]12CC[C@H](O)CC1[C@@H](O)[C@H](O)C1C2CC[C@@]2(C)C1CCC21OCCO1 (stereo partly drawn) [Compound 328] | 34.3% |  |  | 
9 | CC[C@H]1CCC2C3C(CC[C@@]21C)[C@@]1(C)C[C@@H](O)C(O)CC1[C@@H](O)[C@@H]3O (stereo partly drawn) [Compound 360] | 76% |  | 50.5% | 
10 | C[C@H]1CCC2C3C(CC[C@@]21C)[C@@]1(C)CC[C@H](O)CC1[C@@H](O)[C@@H]3O (stereo partly drawn) [Compound 343] | 52% | 40% | 48.9% | 
11 | C[C@]12CC[C@@H](O)C[C@@H]1[C@@H](O)[C@H](O)[C@@H]1[C@@H]2CC[C@]2(C)C(=O)CC[C@@H]12 [Compound 326] |  |  |  | percentage contraction compared to 100 μM methacholine (isolated trachea; OA 0.01 μg/ml): 0%
12 | CC(C)C1CC(O)OC(C(C)C2CCC3C4C(CC[C@]23C)[C@@]2(C)CC[C@@H](O)CC2[C@@H](O)[C@@H]4O)C1 (stereo partly drawn) [Compound 306, 22,29-epoxy-3,6,7,29-tetrahydroxystigmastanol] | 40.5% |  |  | 
13 | C[C@]12CC[C@@H](O)[C@H](O)[C@@H]1[C@@H](O)[C@H](O)[C@@H]1[C@@H]2CC[C@]2(C)[C@@H](O)CC[C@@H]12 [Compound 241, 3α,4β,6α,7β,17β-pentahydroxy-5α-androstane] |  |  |  | inhibition at 25 µM [1, 3]: 22%
14 | CC[C@H]1CCC2C3C(CC[C@@]21C)[C@@]1(C)CC[C@@H](O)CC1[C@H]1OC(C)(C)O[C@H]31 (stereo partly drawn) [Compound 361] |  | 13% | 55% | 
15 | CC(C)[C@H]1CC(=O)OC([C@@H](C)C2CC(=O)C3C4CCC5C[C@@H](O)CC[C@]5(C)C4CC[C@@]32C)C1 (stereo partly drawn) [Compound 266] | -12.5% |  | 17.4% | 
16 | CC1(C)O[C@@H]2C3C(CC[C@]4(C)C(=O)CCC34)[C@@]3(C)CC[C@H](O)CC3[C@H]2O1 (stereo partly drawn) [Compound 331] |  | 5% | 14.5% | 
17 | C[C@]12CC[C@@H](O)C[C@@H]1[C@@H](O)[C@H](O)[C@@H]1[C@@H]2CC[C@]2(C)[C@@H](O)CC[C@@H]12 [Compound 327] |  |  |  | inhibition at 25 µM [1, 3]: 35.2%; percentage contraction compared to 100 μM methacholine (isolated trachea; OA 0.01 μg/ml): 0%; percentage contraction compared to 100 μM methacholine (isolated trachea; OA 0.1 μg/ml): 0%
18 | C/C=C1/CCC2C3C(CC[C@]12C)[C@@]1(C)CC[C@@H](Cl)CC1[C@H]1OC(C)(C)O[C@H]31 (stereo partly drawn) [Compound 336] |  |  | 79.3% | 
19 | C/C=C1/CCC2C3C(CC[C@]12C)[C@@]1(C)CC[C@@H](O)CC1[C@H]1OC(C)(C)O[C@H]31 (stereo partly drawn) [Compound 338] |  |  | 64% | 
20 | C[C@]12CC[C@H]3O[C@H]3[C@@H]1[C@@H](O)[C@H](O)[C@@H]1[C@@H]2CC[C@]2(C)[C@@H](O)CC[C@@H]12 [Compound 239, 3α,4α-epoxy-6α,7β,17β-trihydroxy-5α-androstane] |  |  |  | inhibition at 25 µM [1, 3]: 9.6%
21 | C[C@@]12CCCC1C1C(CC2)[C@@]2(C)CC[C@H](O)CC2[C@@H](O)[C@@H]1O (stereo partly drawn) [Compound 351] | 33.6% |  | 43.6% | 
22 | C/C=C1/CCC2C3CCC4C[C@@H](O)CC[C@]4(C)C3CC[C@]12C (stereo partly drawn) [Compound 251] |  |  | -10.5% | 
